Data reported in US20250270221A1, “SOLID FORMS OF JAK INHIBITOR AND PROCESS OF PREPARING THE SAME” (Incyte Corporation, priority 2022, published 2025).

Assays:
Format in all cases: physicochemical
[1] = Dynamic vapor sorption (DVS Intrinsic, Method D, not dried); parameters: Hysteresis: unit not given here
Description: The samples were not dried prior to analysis. Sorption and desorption data were collected from 5% to 95% RH in 10% RH increments under a nitrogen purge. The equilibrium criteria used for the analyses were 0.001 dm/dt weight change in 5 minutes with a minimum step time of 30 minutes and maximum equilibration time of 180 minutes with a 3 minute data logging interval. Data were not corrected for the initial moisture content of the sample.

[2] = Dynamic vapor sorption (VTI-SA+, sample pre-dried at 60° C.)
Description: The DVS experiment was performed on a VTI-SA+ Vapor Sorption Analyzer from TA Instruments. […] Then the humidity was cycled from 5% RH to 95% RH (adsorption) and back to 5% RH (desorption) with 5% RH interval at a constant temperature of 25° C. The equilibration criteria were 0.010 wt % in 5 minutes with a maximum equilibration time of 180 minutes per step.

[3] = Aqueous solubility of crystalline ruxolitinib di-hydrate; conditions: 20 °C, thermodynamic from solid, 20-25° C.
[4] = Solubility of crystalline ruxolitinib di-hydrate in organic solvents; conditions: for solubility: organic solvent or mixture, thermodynamic from solid
Source text: The resulting ruxolitinib free base readily dissolved in the organic solvents.

[5] = Dehydration of ruxolitinib di-hydrate (resulting solid form)
Source text: Dehydration of ruxolitinib di-hydrate results in the isolation of anhydrous crystalline ruxolitinib free base (Form I) (see table below). Form I is described in more detail in Example 15.

[6] = Relative humidity testing (physical stability, XRPD)
Source text: Ruxolitinib di-hydrate was held at select relative humidities to help determine range of physical stability (see table below). The d-hydrate was transferred to a vial, which was then uncapped and placed inside a jar, for a designated time period, containing a saturated aqueous salt solution: […]

[7] = Water activity slurry experiments (XRPD of solid phase); conditions: 20 d
Description: Limited water activity slurries were conducted utilizing ruxolitinib di-hydrate (see table below). The effect of water activity (aw) on the hydration state of the di-hydrate was investigated through competitive water activity trituration experiments (slurries) in various aqueous solvent mixtures. The resulting solid phase was characterized by XRPD. […] Water activity is also related to relative humidity in that RH %=aw×100. Therefore, it is possible to directly relate the stability of an anhydrous/hydrate system in slurry experiments to solid-state stability. […] The method is particularly valuable when relatively slow kinetics of conversion in the solid state prevents reaching true equilibrium in a reasonable timeframe, since solvent-mediated transformation accelerates the conversion process.

[8] = Target RH 95.0%, sample RH 95.8%
[9] = Target RH 95.0%, sample RH 94.0%

In the case of `N#CC[C@H](C1CCCC1)n1cc(-c2ncnc3[nH]ccc23)cn1` [Form I, (R)-3-(4-(7H-pyrrolo[2,3-d]pyrimidin-4-yl)-1H-pyrazol-1-yl)-3-cyclopentylpropanenitrile], the Hygroscopicity ([1]; DVS Method D) is reported as “hygroscopic”, the “Desorp Mass Change” value ([1]; Target RH 5.0%, sample RH 5.1%) is reported as 5.04% and the “Sorp Mass Change” value ([1]; Target RH 5.0%, sample RH 5.4%) is reported as 0.00%. The Hysteresis ([1]; Target RH 15.0%) was 9.78, the “Sorp Mass Change” value ([1]; Target RH 15.0%, sample RH 15.6%) was 0.06% and the “Desorp Mass Change” value ([1]; Target RH 15.0%, sample RH 16.1%) was 9.84%. The Hysteresis ([1]; Target RH 25.0%) was 9.94, the “Sorp Mass Change” value ([1]; Target RH 25.0%, sample RH 25.4%) was 0.11% and the “Desorp Mass Change” value ([1]; Target RH 25.0%, sample RH 25.9%) was 10.05%. The Hysteresis ([1]; Target RH 35.0%) was 10.06, the “Sorp Mass Change” value ([1]; Target RH 35.0%, sample RH 35.4%) was 0.15% and the “Desorp Mass Change” value ([1]; Target RH 35.0%, sample RH 36.0%) was 10.21%. The Hysteresis ([1]; Target RH 45.0%) was 10.16, the “Sorp Mass Change” value ([1]; Target RH 45.0%, sample RH 45.5%) was 0.19% and the “Desorp Mass Change” value ([1]; Target RH 45.0%, sample RH 46.1%) was 10.35%. For the same molecule, the Hysteresis ([1]; Target RH 55.0%) was 10.21, the “Sorp Mass Change” value ([1]; Target RH 55.0%, sample RH 55.3%) was 0.26% and the “Desorp Mass Change” value ([1]; Target RH 55.0%, sample RH 56.1%) was 10.47%. The Hysteresis ([1]; Target RH 65.0%) was 4.28, the “Sorp Mass Change” value ([1]; Target RH 65.0%, sample RH 65.5%) was 6.30% and the “Desorp Mass Change” value ([1]; Target RH 65.0%, sample RH 66.2%) was 10.58%. For the same molecule, the Hysteresis ([1]; Target RH 75.0%) was 3.65, the “Sorp Mass Change” value ([1]; Target RH 75.0%, sample RH 75.3%) was 7.04% and the “Desorp Mass Change” value ([1]; Target RH 75.0%, sample RH 76.3%) was 10.68%. For the same molecule, the Hysteresis ([1]; Target RH 85.0%) was 0.79, the “Sorp Mass Change” value ([1]; Target RH 85.0%, sample RH 86.1%) was 10.00% and the “Desorp Mass Change” value ([1]; Target RH 85.0%, sample RH 89.4%) was 10.79%. For the same molecule, the “Desorp Mass Change” value [1, 8] was 10.83%, the “Sorp Mass Change” value [1, 8] was 10.83% and the Additional weight loss ([1]; desorption from 15 to 5% RH) was 4.8%. It also gave a Weight loss ([1]; desorption from 95 to 15% RH) of 1%, a Weight gain ([1]; from 5 to 55% RH) of 0.26% and a Weight gain ([1]; from 55 to 95% RH) of 10.6%. The “Solid form of post DVS sample” value ([1]; less crystalline than the starting material) was “Form I”.

With `N#CC[C@H](C1CCCC1)n1cc(-c2ncnc3[nH]ccc23)cn1` [Ruxolitinib Di-hydrate, (R)-3-(4-(7H-pyrrolo[2,3-d]pyrimidin-4-yl)-1H-pyrazol-1-yl)-3-cyclopentylpropanenitrile di-hydrate] the “Sorp Mass Change” value ([1]; Target RH 5.0%, sample RH 4.8%) was 0.0013%, the “Desorp Mass Change” value ([1]; Target RH 5.0%, sample RH 5.6%) was 0.0334% and the Hysteresis ([1]; Target RH 15.0%) was 0.0528. The “Sorp Mass Change” value ([1]; Target RH 15.0%, sample RH 15.1%) was 0.0412%, the “Desorp Mass Change” value ([1]; Target RH 15.0%, sample RH 17.1%) was 0.0940% and the Hysteresis ([1]; Target RH 25.0%) was 0.0461. The “Sorp Mass Change” value ([1]; Target RH 25.0%, sample RH 25.0%) was 0.0707%, the “Desorp Mass Change” value ([1]; Target RH 25.0%, sample RH 25.8%) was 0.1168% and the Hysteresis ([1]; Target RH 35.0%) was 0.0399. The “Sorp Mass Change” value ([1]; Target RH 35.0%, sample RH 35.0%) was 0.0904%, the “Desorp Mass Change” value ([1]; Target RH 35.0%, sample RH 35.9%) was 0.1302% and the Hysteresis ([1]; Target RH 45.0%) was 0.0378. For the same molecule, the “Sorp Mass Change” value ([1]; Target RH 45.0%, sample RH 45.1%) was 0.1069%, the “Desorp Mass Change” value ([1]; Target RH 45.0%, sample RH 46.0%) was 0.1447% and the Hysteresis ([1]; Target RH 55.0%) was 0.0357. For the same molecule, the “Sorp Mass Change” value ([1]; Target RH 55.0%, sample RH 55.1%) was 0.1214%, the “Desorp Mass Change” value ([1]; Target RH 55.0%, sample RH 56.0%) was 0.1572% and the Hysteresis ([1]; Target RH 65.0%) was 0.0347. For the same molecule, the “Sorp Mass Change” value ([1]; Target RH 65.0%, sample RH 65.1%) was 0.1359%, the “Desorp Mass Change” value ([1]; Target RH 65.0%, sample RH 66.0%) was 0.1706% and the Hysteresis ([1]; Target RH 75.0%) was 0.0311. For the same molecule, the “Sorp Mass Change” value ([1]; Target RH 75.0%, sample RH 74.9%) was 0.1561%, the “Desorp Mass Change” value ([1]; Target RH 75.0%, sample RH 76.6%) was 0.1872% and the Hysteresis ([1]; Target RH 85.0%) was 0.0233. The “Sorp Mass Change” value ([1]; Target RH 85.0%, sample RH 84.8%) was 0.1882%, the “Desorp Mass Change” value ([1]; Target RH 85.0%, sample RH 87.6%) was 0.2115% and the “Desorp Mass Change” value [1, 9] was 0.2343%. The “Sorp Mass Change” value [1, 9] was 0.2343%, the “Weight lost upon desorption” value ([1]; desorption 95 to 5% RH) was 0.20% and the Weight gained ([1]; from 5 to 95% relative humidity) was 0.23%. For the same molecule, the “Solid form after pre-dried step” value ([2]; 60° C. under dry N2 (0% RH) for 1 h) was “dehydrated to form amorphous ruxolitinib free base”, the “Solid form after DVS (XRPD)” value ([2]; after cycle 5% RH to 95% RH and back to 5% RH, 25° C.) was “crystalline ruxolitinib di-hydrate” and the Water re-adsorbed ([2]; at 95% RH, 25° C., after pre-drying at 60° C.) was 9.6%. The solubility ([3]; aqueous buffer, pH 6.0 (PBS)) was 17.4 µg/mL, the solubility ([3]; aqueous buffer, pH 6.5 (PBS)) was 106 µg/mL and the solubility ([3]; aqueous buffer, pH 7.0 (PBS)) was 101 µg/mL. For the same molecule, the solubility ([3]; aqueous buffer, pH 7.4 (PBS)) was 100 µg/mL, the solubility ([3]; fassif, FeSSIF (pH 6.5)) was 112 µg/mL and the solubility ([3]; saline or isotonic, Saline (pH 5.5)) was 105 µg/mL. It also gave a solubility ([3]; simulated gastric fluid, 0.1N HCl) greater than 10700 µg/mL, a solubility ([3]; simulated gastric fluid, SGF (pH 1.6)) greater than 11000 µg/mL and a solubility ([3]; FeSSIF (pH 5.0)) of 419 µg/mL. For the same molecule, the solubility ([3]; Water) was 111 µg/mL, the solubility ([3]; HCl solution, simulated gastric fluid, pH 2.0 (HCl)) was 3470 µg/mL and the solubility ([3]; KHP buffer, aqueous buffer, pH 3.0 (KHP)) was 1570 µg/mL. For the same molecule, the solubility ([3]; KHP buffer, aqueous buffer, pH 5.5 (KHP)) was 107 µg/mL, the solubility ([3]; KPH buffer (so in the source), aqueous buffer, pH 4.0 (KPH)) was 362 µg/mL and the solubility ([3]; acetate buffer, aqueous buffer, pH 5.5 (Acetate)) was 93.5 µg/mL. For the same molecule, the solubility ([3]; aqueous KHP solution, aqueous buffer, pH 5.0 (KHP)) was 147 µg/mL, the solubility ([3]; aqueous acetate solution, aqueous buffer, pH 4.0 (Acetate)) was 186 µg/mL and the solubility ([3]; aqueous acetate solution, aqueous buffer, pH 5.0 (Acetate)) was 296 µg/mL. For the same molecule, the solubility ([3]; borate buffer, aqueous buffer, pH 8.5 (Borate)) was 112 µg/mL, the solubility ([4]; acetone) was greater than 500000 µg/mL and the solubility ([4]; ethyl acetate) was greater than 200000 µg/mL. The solubility ([4]; Ethanol (EtOH)) was greater than 500000 µg/mL, the solubility ([4]; Isopropanol (IPA)) was greater than 500000 µg/mL and the solubility ([4]; Methanol (MeOH)) was greater than 500000 µg/mL. The “Behaviour of the hydrate in polar solvents” value ([4]; polar organic solvents) was “lost crystalline water”, the “Result (solid form)” value ([5]; 42° C. oven, 1 d) was “Di-” and the “Result (solid form)” value ([5]; 50° C., vacuum oven, 1 d) was “Form I”. For the same molecule, the “Result (solid form)” value ([5]; 80° C./30 minutes) was “amorphous”, the “Result (solid form)” value ([5]; 110° C./20 minutes) was “amorphous” and the “Result (solid form)” value ([5]; P2O5 jar, RT, 4 d) was “Form I”. For the same molecule, the “Result (solid form)” value ([5]; P2O5 jar, RT, 5 d) was “Form I”, the “Result (solid form)” value ([5]; P2O5 jar, RT, 13 d) was “conversion” and the “Result (solid form)” value ([5]; P2O5 jar, RT, 21 d, di-hydrate crystals) was “Form I”. The “Result (solid form)” value ([5]; RT, vacuum oven, 1 d) was “Form I”, the “Result (solid form)” value ([6]; 0% RH, N2, RT, 1 d) was “Di-hydrate + Form I” and the “Result (solid form)” value ([6]; 11% RH, RT, 2 d) was “Di-hydrate”. The “Result (solid form)” value ([6]; 11% RH, RT, 14 d) was “Di-hydrate”, the “Result (solid form)” value ([6]; 33% RH, RT, 2 d) was “Di-hydrate” and the “Result (solid form)” value ([6]; 53% RH, RT, 2 d) was “Di-hydrate”. For the same molecule, the “Result (solid form)” value ([6]; 98% RH, RT, 2 d) was “Di-hydrate”, the “Result (solid form)” value ([6]; 98% RH, RT, 4 d) was “Di-hydrate” and the “Relative humidity at which the di-hydrate form is physically stable” value ([6]; during the time tested) was “above 11 % RH”. For the same molecule, the “Relative humidity of conversion to anhydrous crystalline free base form (Form I)” value ([6]; undetermined value, during the time tested) was “below 11 % RH”, the “Result (solid form)” value ([7]; 0.34 aw, 75:25 DMSO/H2O) was “Di-hydrate” and the “Result (solid form)” value ([7]; 0.42 aw, 70:30 DMSO/H2O) was “Di-hydrate”. For the same molecule, the “Result (solid form)” value ([7]; 0.68 aw, 50:50 DMSO/H2O) was “Di-hydrate”.
